In ChEMBL document CHEMBL1201862, “PubChem BioAssay data set” (2004):
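1) Cells in 96-well plates. 2) Compound, 48 h, 5 concentrations. 3) Linear interpolation between surrounding doses. 4) Unreached endpoint = highest concentration. The concentration for 50% growth inhibition is given as GI50.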 Calls of active or inactive are those of the source. Rule as the data show it: active = GI50 up to about 1.1 µM and inactive = higher.

Assays:
Test in all cases: NCI-60 cell line screen, 48 h
NCI-H460 = test system: NCI-H460
SK-OV-3 = test system: SK-OV-3
MOLT-4 = test system: MOLT-4
PC-3 = test system: PC-3
A498 = test system: A498
RPMI-8226 = test system: RPMI-8226
UACC-62 = test system: UACC-62
ACHN = test system: ACHN
EKVX = test system: EKVX
K562 = test system: K562
MDA-N = test system: MDA-N
LOX IMVI = test system: LOX IMVI
CCRF-CEM = test system: CCRF-CEM
SF-539 = test system: SF-539
NCI-H23 = test system: NCI-H23
NCI-H522 = test system: NCI-H522
HOP-92 = test system: HOP-92
RXF 393 = test system: RXF 393
CAKI-1 = test system: CAKI-1
Hs-578T = test system: Hs-578T

SMILES: CC1=[N+]([O-])C(C)(C)N(O)C1(C)C
- GI50 (NCI-H460): > 100 µM (inactive)
- GI50 (SK-OV-3): > 100 µM (inactive)
- GI50 (MOLT-4): > 100 µM (inactive)
- GI50 (PC-3): > 100 µM (inactive)
- GI50 (A498): > 100 µM (inactive)
- GI50 (RPMI-8226): > 100 µM (inactive)
- GI50 (UACC-62): > 100 µM (inactive)
- GI50 (ACHN): > 100 µM (inactive)
- GI50 (EKVX): > 100 µM (inactive)
- GI50 (K562): > 100 µM (inactive)
- GI50 (MDA-N): > 100 µM (inactive)
- GI50 (LOX IMVI): > 100 µM (inactive)
- GI50 (CCRF-CEM): > 100 µM (inactive)
- GI50 (SF-539): > 100 µM (inactive)
- GI50 (NCI-H23): > 100 µM (inactive)
- GI50 (NCI-H522): > 100 µM (inactive)
- GI50 (HOP-92): > 100 µM (inactive)
- GI50 (RXF 393): > 100 µM (inactive)

SMILES: O=C(Nc1ccccc1)Nn1c(-c2cccs2)nc2ccc(I)cc2c1=O
- GI50 (NCI-H460): 26.2 µM (inactive)
- GI50 (SK-OV-3): 20.9 µM (inactive)
- GI50 (PC-3): 27.4 µM (inactive)
- GI50 (RPMI-8226): 19.1 µM (inactive)
- GI50 (UACC-62): 28.7 µM (inactive)
- GI50 (ACHN): 27.5 µM (inactive)
- GI50 (EKVX): 20.9 µM (inactive)
- GI50 (CAKI-1): 23.8 µM (inactive)
- GI50 (K562): 0.022 µM (active)
- GI50 (MDA-N): 23.2 µM (inactive)
- GI50 (LOX IMVI): 19.2 µM (inactive)
- GI50 (CCRF-CEM): 20.5 µM (inactive)
- GI50 (SF-539): 33.7 µM (inactive)
- GI50 (NCI-H23): 27.3 µM (inactive)
- GI50 (NCI-H522): 14.3 µM (inactive)
- GI50 (HOP-92): 6.3 µM (inactive)
- GI50 (RXF 393): 30.4 µM (inactive)

SMILES: CC(C)N1CC2CC(CN(C(=O)c3ccccc3)C2)C1.[O-][Cl+3]([O-])([O-])O
- GI50 (NCI-H460): > 100 µM (inactive)
- GI50 (SK-OV-3): > 100 µM (inactive)
- GI50 (MOLT-4): > 100 µM (inactive)
- GI50 (A498): > 100 µM (inactive)
- GI50 (RPMI-8226): > 100 µM (inactive)
- GI50 (UACC-62): > 100 µM (inactive)
- GI50 (ACHN): > 100 µM (inactive)
- GI50 (EKVX): > 100 µM (inactive)
- GI50 (CAKI-1): > 100 µM (inactive)
- GI50 (K562): > 100 µM (inactive)
- GI50 (LOX IMVI): > 100 µM (inactive)
- GI50 (CCRF-CEM): > 100 µM (inactive)
- GI50 (SF-539): > 100 µM (inactive)
- GI50 (NCI-H23): > 100 µM (inactive)
- GI50 (NCI-H522): > 100 µM (inactive)
- GI50 (HOP-92): > 100 µM (inactive)
- GI50 (RXF 393): > 100 µM (inactive)

SMILES: Cn1c(-c2ccc(C=O)o2)ccc1-c1ccc(C=O)o1
- GI50 (NCI-H460): > 100 µM (inactive)
- GI50 (SK-OV-3): > 100 µM (inactive)
- GI50 (MOLT-4): 24.8 µM (inactive)
- GI50 (PC-3): 39.4 µM (inactive)
- GI50 (A498): > 100 µM (inactive)
- GI50 (RPMI-8226): 57.1 µM (inactive)
- GI50 (UACC-62): 74.1 µM (inactive)
- GI50 (ACHN): 31.7 µM (inactive)
- GI50 (EKVX): 54.1 µM (inactive)
- GI50 (CAKI-1): 12.5 µM (inactive)
- GI50 (K562): 35.5 µM (inactive)
- GI50 (MDA-N): 33.4 µM (inactive)
- GI50 (LOX IMVI): 31.7 µM (inactive)
- GI50 (CCRF-CEM): > 100 µM (inactive)
- GI50 (SF-539): 34.5 µM (inactive)
- GI50 (NCI-H23): 45.7 µM (inactive)
- GI50 (NCI-H522): 1.68 µM (inactive)
- GI50 (HOP-92): 36.6 µM (inactive)
- GI50 (RXF 393): > 100 µM (inactive)

SMILES: COc1cc(C2OC(N)=C(C#N)C3=C2C(C)CCC3)cc(OC)c1OC (stereo unspecified)
- GI50 (SK-OV-3): 80.7 µM (inactive)
- GI50 (MOLT-4): 34.2 µM (inactive)
- GI50 (PC-3): 81.5 µM (inactive)
- GI50 (Hs-578T): 55.1 µM (inactive)
- GI50 (RPMI-8226): > 100 µM (inactive)
- GI50 (UACC-62): > 100 µM (inactive)
- GI50 (ACHN): 97.9 µM (inactive)
- GI50 (EKVX): 37.2 µM (inactive)
- GI50 (CAKI-1): > 100 µM (inactive)
- GI50 (K562): > 100 µM (inactive)
- GI50 (MDA-N): > 100 µM (inactive)
- GI50 (LOX IMVI): > 100 µM (inactive)
- GI50 (CCRF-CEM): > 100 µM (inactive)
- GI50 (SF-539): 11.9 µM (inactive)
- GI50 (NCI-H23): > 100 µM (inactive)
- GI50 (RXF 393): 21.9 µM (inactive)

SMILES: COc1cc(/C=C/C(=O)c2sc(Nc3ccccc3)nc2C)ccc1O
- GI50 (NCI-H460): > 100 µM (inactive)
- GI50 (SK-OV-3): > 100 µM (inactive)
- GI50 (MOLT-4): 46 µM (inactive)
- GI50 (A498): > 100 µM (inactive)
- GI50 (RPMI-8226): 83.2 µM (inactive)
- GI50 (UACC-62): 82.8 µM (inactive)
- GI50 (ACHN): 50.5 µM (inactive)
- GI50 (EKVX): 19.8 µM (inactive)
- GI50 (CAKI-1): 42.9 µM (inactive)
- GI50 (K562): 56.4 µM (inactive)
- GI50 (LOX IMVI): 48.5 µM (inactive)
- GI50 (CCRF-CEM): 88.5 µM (inactive)
- GI50 (SF-539): > 100 µM (inactive)
- GI50 (NCI-H23): > 100 µM (inactive)
- GI50 (NCI-H522): 42.4 µM (inactive)
- GI50 (HOP-92): 35.6 µM (inactive)
- GI50 (RXF 393): 51.9 µM (inactive)

SMILES: CC(=O)N1N=C(c2ccccc2Nc2ccccc2C2=NN(C(C)=O)C(c3ccccc3)O2)OC1c1ccccc1 (stereo unspecified)
- GI50 (NCI-H460): 26.7 µM (inactive)
- GI50 (SK-OV-3): 30.3 µM (inactive)
- GI50 (MOLT-4): 4.76 µM (inactive)
- GI50 (PC-3): 10.4 µM (inactive)
- GI50 (RPMI-8226): 25.3 µM (inactive)
- GI50 (UACC-62): 35 µM (inactive)
- GI50 (ACHN): 86.5 µM (inactive)
- GI50 (EKVX): 45.4 µM (inactive)
- GI50 (K562): 30.7 µM (inactive)
- GI50 (MDA-N): 29 µM (inactive)
- GI50 (LOX IMVI): 81.8 µM (inactive)
- GI50 (NCI-H23): 60.7 µM (inactive)
- GI50 (NCI-H522): 36.1 µM (inactive)
- GI50 (HOP-92): 93.8 µM (inactive)
- GI50 (RXF 393): 46.8 µM (inactive)

SMILES: O=C(N/C(=C\c1ccc(F)cc1)c1nc2ccccc2[nH]1)c1ccccc1
- GI50 (NCI-H460): > 100 µM (inactive)
- GI50 (SK-OV-3): > 100 µM (inactive)
- GI50 (MOLT-4): > 100 µM (inactive)
- GI50 (A498): > 100 µM (inactive)
- GI50 (RPMI-8226): > 100 µM (inactive)
- GI50 (UACC-62): > 100 µM (inactive)
- GI50 (ACHN): > 100 µM (inactive)
- GI50 (EKVX): > 100 µM (inactive)
- GI50 (CAKI-1): > 100 µM (inactive)
- GI50 (K562): > 100 µM (inactive)
- GI50 (LOX IMVI): > 100 µM (inactive)
- GI50 (CCRF-CEM): > 100 µM (inactive)
- GI50 (SF-539): > 100 µM (inactive)
- GI50 (NCI-H23): > 100 µM (inactive)
- GI50 (NCI-H522): > 100 µM (inactive)
- GI50 (HOP-92): 97.1 µM (inactive)
- GI50 (RXF 393): > 100 µM (inactive)
